Results on 23 compounds are retold here after PubChem BioAssay (NCI).

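96-well plates; 48 h exposure; 5 concentrations. Endpoints by linear interpolation between flanking doses. Not reached: highest tested concentration assigned. GI50 = concentration required for 50% inhibition of growth. At the TGI there is no net growth.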

The subject of the first experiment is NCI-H460 lung. As to the kind of experiment: NCI-60 cell line screen, 48 h.
As to `Cn1c(/C(C#N)=C/c2ccc3ccccc3c2)cc2ccccc21`, the GI50 is 0.201 µM and the TGI was greater than 100 µM.

Take `c1ccc2nc3c(cc4ccccn43)nc2c1`: the GI50 is greater than 100 µM and the TGI is greater than 100 µM.

On to `C=CCOC(=O)CC[N+]1=CCC(c2ccccc2)(c2ccccc2)O1`, for which the TGI is greater than 100 µM.

Take `COC(=O)/C(C#N)=C1\CCC(C(=O)OC)N1C` (configuration not stated): the TGI is greater than 100 µM.

Turning to `c1ccc(Cn2cnc3ccc(-c4nc(-c5ccc6c(c5)ncn6C5CCCCC5)cn5ccnc45)cc32)cc1`, the GI50 is 2.3 µM and the TGI turned out to be 5.66 µM.

The compound `CSc1c(C)c(C)nn1-c1ccccc1` returned a TGI greater than 100 µM.

`COc1cc2cnc3c4ccccc4ccc3c2cc1OC` gave a TGI greater than 100 µM.

Regarding `Cc1cc(N(CCC#N)CCC#N)ccc1/C=C1N=C(/C=C/c2ccccc2)OC(=O)N\1`, the TGI is greater than 100 µM.

With `Cc1cn(C2OC(C)(CO)C(O)C2O)c(=O)[nH]c1=O` (configuration not stated), the TGI was greater than 100 µM.

In turn, `CCN(CC)CC(=O)N1CCc2c([nH]c3ccccc23)C1c1cccnc1` (configuration not stated) showed a TGI greater than 100 µM.

As for `CCSc1nc(N)c2cn[nH]c2n1`, the GI50 is 35.1 µM and the TGI is greater than 100 µM.

As for `N=S(c1ccccc1)c1ccccc1[N+](=O)[O-]` (configuration not stated), the TGI was 51 µM.

For `O=c1c2c3c(sc2n2c(-c4cc(-c5ccccc5)nn4-c4ccccc4)nnc2n1Cc1ccccc1)CCCC3`, the GI50 is greater than 100 µM and the TGI is greater than 100 µM.

For `C[C@H]1[C@H](C)CC[C@]2(C(=O)NCCNCCN)CC[C@]3(C)C(=CC[C@@H]4[C@@]5(C)CCC(=O)C(C)(C)[C@@H]5CC[C@]43C)[C@H]12`, the GI50 is 1.77 µM and the TGI worked out at 3.28 µM.

`COC1OC(C)C(OCc2ccccc2)C(OS(=O)(=O)c2ccc(C)cc2)C1OS(=O)(=O)c1ccc(C)cc1` (configuration not stated) yielded a TGI greater than 100 µM.

As to `Cn1c2ccccc2c2c(=O)c3ccccc3[nH]c21`, the GI50 was 32.4 µM and the TGI was greater than 100 µM.

The subject of another experiment is MALME-3M melanoma. Description: NCI-60 cell line screen, 48 h.
`COc1cccc(/C=C2\CCC(C)(CN(C)C)C2=O)c1` (configuration not stated) displayed a TGI greater than 100 µM.

Take `CCN(CC)CCNC(=O)c1cn2ncnc(Oc3ccc(NC(=O)Nc4ccc(Cl)c(C(F)(F)F)c4)c(F)c3)c2c1C`: the GI50 is 1150 nM and the TGI is 2.55 µM.

`Cc1cc2c(Br)cc(Br)c(O)c2nc1C(=O)c1ccccc1` yielded a TGI greater than 76.9 µM.

On to `Cn1cc(-c2csc(-c3cn(C)c4ccccc34)n2)c2cnccc21`, for which the GI50 was 2010 nM and the TGI was found to be 3.61 µM.

In turn, `C=CCC1[C@@H](C(C)(C)C(C(C)=O)C(=O)C(=O)OC)OC(C(C)(C)C)N1C(=O)OC` (some centres not stated) displayed a TGI greater than 100 µM.

For the compound `CCOC(=O)C(=O)Nc1ccccc1C(F)(F)F`, the TGI is greater than 100 µM.

Regarding `CSc1c(C)c(C)nn1-c1ccccc1`, the TGI is greater than 100 µM.

For the compound `COc1cc2cnc3c4ccccc4ccc3c2cc1OC`, the TGI is greater than 100 µM.

In turn, `Cc1cc(N(CCC#N)CCC#N)ccc1/C=C1N=C(/C=C/c2ccccc2)OC(=O)N\1` had a TGI greater than 100 µM.

`Cc1cn(C2OC(C)(CO)C(O)C2O)c(=O)[nH]c1=O` (configuration not stated) gave a TGI greater than 100 µM.

Turning to `CCSc1nc(N)c2cn[nH]c2n1`, the GI50 is 31200 nM and the TGI turned out to be 67 µM.

For the compound `N=S(c1ccccc1)c1ccccc1[N+](=O)[O-]` (configuration not stated), the TGI amounted to 30.1 µM.

As to `O=c1c2c3c(sc2n2c(-c4cc(-c5ccccc5)nn4-c4ccccc4)nnc2n1Cc1ccccc1)CCCC3`, the GI50 was greater than 100000 nM and the TGI is greater than 100 µM.

Regarding `C[C@H]1[C@H](C)CC[C@]2(C(=O)NCCNCCN)CC[C@]3(C)C(=CC[C@@H]4[C@@]5(C)CCC(=O)C(C)(C)[C@@H]5CC[C@]43C)[C@H]12`, the GI50 is 1640 nM and the TGI turned out to be 3.06 µM.

For the compound `COC1OC(C)C(OCc2ccccc2)C(OS(=O)(=O)c2ccc(C)cc2)C1OS(=O)(=O)c1ccc(C)cc1` (configuration not stated), the TGI was greater than 100 µM.

Another experiment deals with KM12 colon. As to the kind of experiment: NCI-60 cell line screen, 48 h.
Take `COc1cccc(/C=C2\CCC(C)(CN(C)C)C2=O)c1` (configuration not stated): the TGI is greater than 100 µM.

Turning to `CCN(CC)CCNC(=O)c1cn2ncnc(Oc3ccc(NC(=O)Nc4ccc(Cl)c(C(F)(F)F)c4)c(F)c3)c2c1C`, the GI50 is 1570 nM and the TGI was found to be 3.08 µM.

`Cc1cc2c(Br)cc(Br)c(O)c2nc1C(=O)c1ccccc1` returned a TGI greater than 100 µM.

In the case of `Cn1cc(-c2csc(-c3cn(C)c4ccccc34)n2)c2cnccc21`, the GI50 is 1000 nM and the TGI amounted to 2.48 µM.

Consider `C=CCC1[C@@H](C(C)(C)C(C(C)=O)C(=O)C(=O)OC)OC(C(C)(C)C)N1C(=O)OC` (some centres not stated), for which the TGI was greater than 100 µM.

Compound `CCOC(=O)C(=O)Nc1ccccc1C(F)(F)F` came in with a TGI greater than 100 µM.

`CCOC(=O)/C(=C/c1cccc(OC)c1)N(CC)CC` returned a TGI greater than 100 µM.

Turning to `Cn1c(/C(C#N)=C/c2ccc3ccccc3c2)cc2ccccc21`, the GI50 is 114 nM and the TGI is greater than 100 µM.

Turning to `c1ccc2nc3c(cc4ccccn43)nc2c1`, the GI50 was 26600 nM and the TGI was greater than 100 µM.

On to `C=CCOC(=O)CC[N+]1=CCC(c2ccccc2)(c2ccccc2)O1`, for which the TGI is greater than 100 µM.

Compound `COC(=O)/C(C#N)=C1\CCC(C(=O)OC)N1C` (configuration not stated) gave a TGI greater than 100 µM.

With `c1ccc(Cn2cnc3ccc(-c4nc(-c5ccc6c(c5)ncn6C5CCCCC5)cn5ccnc45)cc32)cc1`, the GI50 was 2080 nM and the TGI amounted to 4.93 µM.

With `CSc1c(C)c(C)nn1-c1ccccc1`, the TGI is greater than 100 µM.

As to `COc1cc2cnc3c4ccccc4ccc3c2cc1OC`, the TGI was greater than 100 µM.

Compound `Cc1cc(N(CCC#N)CCC#N)ccc1/C=C1N=C(/C=C/c2ccccc2)OC(=O)N\1` returned a TGI greater than 100 µM.

`Cc1cn(C2OC(C)(CO)C(O)C2O)c(=O)[nH]c1=O` (configuration not stated) gave a TGI greater than 100 µM.

On to `CCN(CC)CC(=O)N1CCc2c([nH]c3ccccc23)C1c1cccnc1` (configuration not stated), for which the TGI is greater than 100 µM.

For the compound `CCSc1nc(N)c2cn[nH]c2n1`, the GI50 is 22000 nM and the TGI amounted to 59.6 µM.
